Measured values as given in US20250230193A1, “CYCLIC COMPOUND HAVING SELECTIVE KRAS INHIBITORY EFFECT ON HRAS AND NRAS” (CHUGAI SEIYAKU KABUSHIKI KAISHA, priority 2022, published 2025).

How the values were obtained:
[1] = biological target: GDP-bound HRAS wild-type protein (Homo sapiens, UniProt P01112); experiment: Binding to HRAS by surface plasmon resonance (SPR), Single Cycle Kinetics; conditions: KD ratio HRAS/KRAS, SPR
[2] = biological target: GDP-bound NRAS wild-type protein (Homo sapiens, UniProt P01111); experiment: Binding to NRAS by surface plasmon resonance (SPR), Single Cycle Kinetics; conditions: KD ratio NRAS/KRAS, SPR
GDP-bound NRAS wild-type protein, sequence (P01111 whole entry): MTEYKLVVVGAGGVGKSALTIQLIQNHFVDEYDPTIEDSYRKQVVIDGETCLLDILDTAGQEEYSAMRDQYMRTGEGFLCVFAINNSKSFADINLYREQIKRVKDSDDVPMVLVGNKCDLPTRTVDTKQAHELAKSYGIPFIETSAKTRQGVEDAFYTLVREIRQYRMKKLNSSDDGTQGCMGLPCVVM

GDP-bound HRAS wild-type protein, sequence (P01112 whole entry): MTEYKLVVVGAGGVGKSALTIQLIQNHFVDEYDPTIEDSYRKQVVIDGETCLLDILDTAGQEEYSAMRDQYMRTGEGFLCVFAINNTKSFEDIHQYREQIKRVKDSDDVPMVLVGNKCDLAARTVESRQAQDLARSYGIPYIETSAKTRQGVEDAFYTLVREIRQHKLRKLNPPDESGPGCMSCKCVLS

SMILES | HRAS/KRAS (ratio of KD value with respect to GDP-bound HRAS wild-type protein to KD value with respect to KRAS) [1] | NRAS/KRAS (ratio of KD value with respect to GDP-bound NRAS wild-type protein to KD value with respect to KRAS) [2]
CC[C@H](C)[C@@H]1NC(=O)[C@H](CC(C)C)N(C)C(=O)C[C@@H](C(=O)N2CCOCC2)NC(=O)[C@H](C2CCCC2)N(C)C(=O)C2(CCCC2)NC(=O)[C@@H]2CCCN2C(=O)[C@H](CCc2cc(F)c(C(F)(F)F)c(F)c2)NC(=O)CN(C)C(=O)[C@H](Cc2ccc(C(F)(F)F)cc2)N2CCCC[C@@H](C2=O)N(C)C(=O)CN(C)C1=O [PP0541] | B (a compound having 3 or more and less than 10 is denoted as B) | B (a compound having 3 or more and less than 10 is denoted as B)
CC[C@H](C)[C@@H]1NC(=O)[C@H](CC(C)C)N(C)C(=O)C[C@@H](C(=O)N2CCOCC2)N(C)C(=O)[C@H](C2CCCC2)N(C)C(=O)C2(CCCC2)NC(=O)[C@@H]2CCCN2C(=O)[C@H](CCc2cc(F)c(C(F)(F)F)c(F)c2)NC(=O)CN(C)C(=O)[C@H](Cc2ccc(C(F)(F)F)cc2)N2CCCC[C@@H](C2=O)N(C)C(=O)CNC1=O [PP0542] | B (a compound having 3 or more and less than 10 is denoted as B) | B (a compound having 3 or more and less than 10 is denoted as B)
CC[C@H](C)[C@@H]1NC(=O)[C@H](CC(C)C)N(C)C(=O)C[C@@H](C(=O)N2CCOCC2)N(C)C(=O)[C@H](C2CCCC2)N(C)C(=O)C2(CCCC2)NC(=O)[C@@H]2CCCN2C(=O)[C@H](CCc2cc(F)c(C(F)(F)F)c(F)c2)NC(=O)CN(C)C(=O)[C@H](Cc2ccc(C(F)(F)F)cc2)N2CCCC[C@@H](C2=O)N(C)C(=O)[C@H](C)NC1=O [PP0543] | B (a compound having 3 or more and less than 10 is denoted as B) | B (a compound having 3 or more and less than 10 is denoted as B)
CC[C@H](C)[C@@H]1NC(=O)[C@H](CC(C)C)N(C)C(=O)C[C@@H](C(=O)N2CCOCC2)N(C)C(=O)[C@H](C2CCCC2)N(C)C(=O)C2(CCCC2)NC(=O)[C@@H]2CCCN2C(=O)[C@H](CCc2cc(F)c(C(F)(F)F)c(F)c2)NC(=O)CN(C)C(=O)[C@H](Cc2ccc(C(F)(F)F)cc2)N2CCCC[C@@H](C2=O)N(C)C(=O)[C@H](C)N(C)C1=O [PP0544] | B (a compound having 3 or more and less than 10 is denoted as B) | B (a compound having 3 or more and less than 10 is denoted as B)
CC[C@H](C)[C@@H]1NC(=O)[C@H](CC(C)C)N(C)C(=O)C[C@@H](C(=O)N2CCOCC2)N(C)C(=O)[C@H](C2CCCC2)N(C)C(=O)C2(CCCC2)NC(=O)[C@@H]2CCCN2C(=O)[C@H](CCc2cc(F)c(C(F)(F)F)c(F)c2)NC(=O)CN(C)C(=O)[C@H](Cc2ccc(C(F)(F)F)cc2)N2CCCC[C@@H](C2=O)N(C)C(=O)CN(CC)C1=O [PP0545] | B (a compound having 3 or more and less than 10 is denoted as B) | B (a compound having 3 or more and less than 10 is denoted as B)
CC[C@H](C)[C@@H]1NC(=O)[C@H](CC(C)C)N(C)C(=O)C[C@@H](C(=O)N2CCOCC2)N(C)C(=O)[C@H](C2CCCC2)N(C)C(=O)C2(CCCC2)NC(=O)[C@@H]2CCCN2C(=O)[C@H](CCc2cc(F)c(C(F)(F)F)c(F)c2)NC(=O)CN(C)C(=O)[C@H](Cc2ccc(C(F)(F)F)cc2)N2CCCC[C@@H](C2=O)N(C)C(=O)[C@@H]2CCCN2C1=O [PP0547] | B (a compound having 3 or more and less than 10 is denoted as B) | B (a compound having 3 or more and less than 10 is denoted as B)
CC[C@H](C)[C@@H]1NC(=O)[C@H](CC(C)C)N(C)C(=O)C[C@@H](C(=O)N2CCOCC2)N(C)C(=O)[C@H](C2CCCC2)N(C)C(=O)C2(CCCC2)NC(=O)[C@@H]2CCCN2C(=O)[C@H](CCc2cc(F)c(C(F)(F)F)c(F)c2)NC(=O)CN(C)C(=O)[C@H](Cc2ccc(C(F)(F)F)cc2)N2CCCC[C@@H](C2=O)N(C)C(=O)[C@@H]2CCCCN2C1=O [PP0548] | B (a compound having 3 or more and less than 10 is denoted as B) | C (A compound having a KD ratio of 0.1 or more and less than 3 is denoted as C)
CC[C@H](C)[C@@H]1NC(=O)[C@H](C)N(C)C(=O)C[C@@H](C(=O)N2CCOCC2)N(C)C(=O)[C@H](C2CCCC2)N(C)C(=O)C2(CCCC2)NC(=O)[C@@H]2CCCN2C(=O)[C@H](CCc2cc(F)c(C(F)(F)F)c(F)c2)NC(=O)CN(C)C(=O)[C@H](Cc2ccc(C(F)(F)F)cc2)N2CCCC[C@@H](C2=O)N(C)C(=O)CN(C)C1=O [PP0549] | B (a compound having 3 or more and less than 10 is denoted as B) | C (A compound having a KD ratio of 0.1 or more and less than 3 is denoted as C)
CC[C@H](C)[C@@H]1NC(=O)[C@H](CC)N(C)C(=O)C[C@@H](C(=O)N2CCOCC2)N(C)C(=O)[C@H](C2CCCC2)N(C)C(=O)C2(CCCC2)NC(=O)[C@@H]2CCCN2C(=O)[C@H](CCc2cc(F)c(C(F)(F)F)c(F)c2)NC(=O)CN(C)C(=O)[C@H](Cc2ccc(C(F)(F)F)cc2)N2CCCC[C@@H](C2=O)N(C)C(=O)CN(C)C1=O [PP0550] | B (a compound having 3 or more and less than 10 is denoted as B) | B (a compound having 3 or more and less than 10 is denoted as B)
CC[C@H](C)[C@@H]1NC(=O)[C@H](CC(C)C)N(C)C(=O)C[C@@H](C(=O)N2CCOCC2)N(C)C(=O)[C@H](C2CCCC2)N(C)C(=O)C2(CCCC2)NC(=O)[C@@H]2CCCN2C(=O)[C@H](CCc2cc(F)c(C(F)(F)F)c(F)c2)NC(=O)CN(C)C(=O)[C@H](Cc2ccc(C(F)(F)F)cc2)N2CCCC[C@@H](C2=O)N(C)C(=O)[C@H](CC)N(C)C1=O [PP0551] | B (a compound having 3 or more and less than 10 is denoted as B) | C (A compound having a KD ratio of 0.1 or more and less than 3 is denoted as C)
CC[C@H](C)[C@@H]1NC(=O)[C@H](CC(C)C)N(C)C(=O)C[C@@H](C(=O)N2CCOCC2)N(C)C(=O)[C@H](C2CCCC2)N(C)C(=O)C2(CCCC2)NC(=O)[C@@H]2CCCN2C(=O)[C@H](CCc2cc(F)c(C(F)(F)F)c(F)c2)NC(=O)CN(C)C(=O)[C@H](Cc2ccc(C(F)(F)F)cc2)N2CCCC[C@@H](C2=O)N(C)C(=O)CN(C)C1=O [PP0552] | B (a compound having 3 or more and less than 10 is denoted as B) | B (a compound having 3 or more and less than 10 is denoted as B)
